According to article PMC12677843, “Multidisciplinary Preclinical Investigations on Ferrocenyl, Ruthenocenyl, and Benzyl Derivatives of Niridazole as New Drug Candidates against Schistosomiasis” (Chemmedchem, 2025):
pEC50: −log10 of the molar value. Like-named read-outs stand apart in the source and are kept apart here.

How the values were obtained:
juvenile S. mansoni = test: In vitro drug sensitivity assay on juvenile S. mansoni; assay type: cell-based, Schistosoma mansoni; conditions: 72 h incubation, 37 °C, 5% CO2
Experimental: Juvenile worms were gained through cultivation of NTS as previously described. 10 In short, NTS were obtained as described above, then directly after the mechanical transformation process the newly transformed schistosomula were placed in a special culturing medium. The culture medium consists of Panserin 401, w: L-Glutamine, serum free all-round medium (Pan Biotech, Aidenbach, Germany) supplemented with 20 % human serum and 500 U/mL penicillin, […] streptomycin (LuBioScience, Switzerland). 96-well transparent polystyrene flat bottom plates were used for the in vitro growth procedure, with 40 to 60 NTS per well in 100 µL culture medium. The bordering wells of the plate were filled solely with medium to counteract evaporation and to keep the humidity as steady as possible. The plates were incubated for 21 days at 5 % CO2 and at 37 °C, with regular medium changes every 3 to 4 days. After the 21 days culturing period, the schistosomulae developed into juveniles. For the drug sensitivity assay, juvenile worms were incubated over 72 h (5 % CO 2 and 37 °C) with the test compound in the same medium, as used for the culturing process. In a 96-well plate, 250 µL medium containing the test compound and six juvenile worms, ideally of both sexes were placed in each well. All compounds were tested twice independently at 50, 10, 5 and 1 µM in duplicates. The viability of the worms was evaluated microscopically after 24, 48 and 72 h of continuous drug exposure using the same phenotypic screening method as described before. […]

[1] = system: S. mansoni newly transformed schistosomula (NTS); test: In vitro evaluation on newly transformed schistosomula (NTS); assay type: cell-based, Schistosoma mansoni; conditions: for pEC50: 72 h incubation, 37 °C, 5% CO2; for drug effect at 50 µM on S. mansoni NTS: highest tested concentration 50 µM
Experimental: 2. Experimental section for biological experiments
Stock solutions of the test compounds
Stock solution of a concentration of 10 mM in pure DMSO (Sigma-Aldrich, Switzerland) were prepared of the 12 compounds, these stock solutions were used for all in vitro evaluations from activity tests in S. mansoni to the cytotoxic determinations in HUH7 hepatocyte-derived carcinoma cells, and in SH-SY5Y neuroblastoma cells.
The solutions were thoroughly vortexed and sonicated to enable a good dissolution of the compounds and homogenous stock solutions.
2.1 In vitro evaluations in S. mansoni
In vitro evaluation on newly transformed schistosomula (NTS)
To obtain newly transformed schistosomula (NTS) the lifecycle of S. mansoni (strain originates from West Africa, Liberia) is maintained at the Swiss Tropical and Public Health Institute (Swiss TPH). As previously described, cercariae are collected from infected Biomphalaria glabrata snails and then mechanically transformed into NTS. 8 After HBSS (Gibco, Waltham MA, USA) washing to get rid of the detached tails, the NTS were kept overnight (min. 12 h, max. 24 h) in culture medium at 37 °C and 5 % CO2 to complete their transformation process, before the drug sensitivity assay was started. The drug assays were performed in the same culture medium consisting of medium M199 (Gibco, Waltham MA, USA) supplemented with 5 % v/v inactivated fetal calf serum (iFCS; Bioconcept AG, Allschwil, Switzerland), 1% antibiotics mixture developed by Mäser et al., 9 and 1 % penicillin 10,000 U/mL, and streptomycin 10 mg/mL solution (Sigma-Aldrich, Buchs, Switzerland). The assay was performed in a 96-well plate, with 30−40 NTS per well in a final volume of 250 μL. NTS incubated in culture medium containing 0.5 % DMSO but no drug served as negative controls.
Microscopic evaluation was performed after 24, 48 and 72 h of incubation of the parasites at 37 °C and 5 % CO 2. Their overall viability was scored from 0 (death) to 3 (full viability) by a phenotypic screening method based on their motility, morphology, […]
and granularity. […]

adult S. mansoni = test: In vitro drug sensitivity assay on adult S. mansoni (microscopic viability scoring); assay type: cell-based, Schistosoma mansoni; conditions: for mean drug effect at 10 µM on adult S. mansoni, 24 h / mean drug effect at 10 µM on adult S. mansoni, 48 h / mean drug effect at 10 µM on adult S. mansoni, 72 h: in percentage of DMSO control; for drug effect at 50 µM on adult S. mansoni: 72 h incubation, normalized to DMSO control, active if ≥60%; for pEC50: 37 °C, 5% CO2; for Fold activity of niridazole: potency on adult S. mansoni relative to niridazole, EC50 at 72 h
Experimental: Figure 3 In vitro activity at 50 µM of the 12 compounds on adult S. mansoni. Adult schistosomes were incubated in culture media for 72 h at 37 °C and 5% CO2 with either compound (50 µM) or a DMSO (0.5%) control. The viability of the worms was microscopically evaluated and scored (0—3, in 0.5 steps) every 24 h. Results are from two independent experiments, each performed in duplicate. Drug activities were normalized to the DMSO controls. Data represent mean ± SD in percentage of DMSO control. […]
In vitro evaluation on adult S. mansoni
After a week for acclimatization to the new environment with controlled conditions (temperature: 22 °C ± 2 °C, humidity: 50 % ± 10 %, 12:12 h light/dark photocycle), four-week-old female NMRI mice (Charles River, Sulzfeld, Germany) were subcutaneously infected with approximately 100 cercariae to establish the S. mansoni infection. In the S. mansoni infected mice the worms were allowed to develop for 7 weeks into the adult stage, before they were extracted from the mesenteric veins of the euthanized mice. The adult worms were placed into RPMI 1640 (Gibco, Waltham MA, USA) medium supplemented with 1 % penicillin/streptomycin mixture and 5 % iFCS at 37 °C and 5 % CO 2. The drug sensitivity assay was set up in a 24-well plate with two wells containing each two pairs of S. mansoni worms per compound and concentration.
The final volume per well was 2 mL, containing the culture medium and the corresponding amount of drug dissolved in DMSO. The maximum concentration tested was 50 µM, corresponding to 0.5 % DMSO, to which all the other wells were adapted […]
to, so that all test concentrations contained always the same amount of DMSO.
Additionally, 2 wells with negative controls containing only DMSO and the culture medium were included. After an incubation period of 72 h at 37 °C and 5 % CO 2, the worms were microscopically evaluated. The drug effect was determined 24, 48 and 72 h post-exposure based on the phenotype of the adult worms, using a viability scale ranging from three referring to viable, motile worms with no change in their tegument to zero standing for the death of the worms.
All described in vitro studies with mice involved, were conducted at the Swiss Tropical and Public Health Institute, first in Basel, later in Allschwil, and had the approval by the corresponding veterinary authorities of the Canton Basel-Stadt (permit no. 2070)

[2] = Stability in DMSO-d6 monitored by 1H NMR; assay type: physicochemical; conditions: room temperature, 0, 6, 24, 30 and 48 h
Experimental: Stability is a key factor that needs to be investigated in medicinal chemistry, particularly with metal complexes.^[ [44] ^] We randomly chose four niridazole derivatives that we dissolved in DMSO‐d 6 (A3, B1, C2, and D1). We then monitored by ^1H NMR spectroscopy any change in the spectra after 0, 6, 24, 30, and 48 h at room temperature. No shifted peaks or new peaks were found for all the tested compounds over 2 days, showing that they are stable in DMSO‐d 6. The NMR spectra of these studies can be found in the Supporting Information (Figure S32–S35).
Figure S31 DEPT spectrum of C2
1H NMR spectra for stability
Preparation of the control samples for 1H NMR analysis: Compounds B1, D1, A3 and
C2 were dissolved in DMSO- d6. Compound A2 was dissolved in DMSO- d6 with D2O
(4:1, v/v). NMR spectra were recorded in deuterated solvents on Bruker Avance-400
in the room temperature for 0, 6, 24, 30 and 48 hours or 0, 3, 6 and 24 hours. […]

[3] = 24 h drug exposure, read-out: EC50 on adult S. mansoni, 24 h
[4] = 72 h drug exposure, read-out: EC50 on adult S. mansoni, 72 h
[5] = 48 h drug exposure, read-out: EC50 on adult S. mansoni, 48 h
[6] = Schistosoma mansoni, 72 h, 72 h drug exposure, read-out: EC50 on adult S. mansoni, 72 h

Row | Compound | pEC50 (juvenile S. mansoni) | pEC50 [1] | mean drug effect at 10 µM on adult S. mansoni, 24 h (adult S. mansoni; 24 h) | mean drug effect at 10 µM on adult S. mansoni, 48 h (adult S. mansoni; 48 h) | mean drug effect at 10 µM on adult S. mansoni, 72 h (adult S. mansoni; 72 h) | drug effect at 50 µM on adult S. mansoni (adult S. mansoni) | pEC50 (adult S. mansoni; [3]) | pEC50 (adult S. mansoni; [4]) | Fold activity of niridazole (adult S. mansoni) | pEC50 (adult S. mansoni; [5]) | stability in DMSO-d6 (1H NMR) [2] | pEC50 ([1]; Schistosoma mansoni) | drug effect at 50 µM on S. mansoni NTS [1] | pEC50 (adult S. mansoni; [6]) | pEC50 (juvenile S. mansoni; Schistosoma mansoni) | pEC50 (adult S. mansoni; Schistosoma mansoni, 24 h, 24 h drug exposure, read-out: EC50 on adult S. mansoni, 24 h) | pEC50 (adult S. mansoni; Schistosoma mansoni, 48 h, 48 h drug exposure, read-out: EC50 on adult S. mansoni, 48 h)
1 | O=C1N(C[c-]2cccc2)CCN1c1ncc([N+](=O)[O-])s1.[Ru+2].c1cc[cH-]c1 [Compound B2] | 5.10 | < 4.30 | 31.28% | 44.99% | 65.57% | less active than niridazole | 4.42 | 5.49 | 1.8 |  |  |  |  |  |  |  | 
2 | C=CC([c-]1cccc1)N1CCN(c2ncc([N+](=O)[O-])s2)C1=O.[Fe+2].c1cc[cH-]c1 (racemic) [Compound A5] | 4.91 | < 4.30 | 36.19% | 57.59% |  |  | < 4.30 | 5.82 | 3.8 | 5.28 |  |  |  |  |  |  | 
3 | O=C1N(Cc2ccccc2)CCN1c1ncc([N+](=O)[O-])s1 [Compound C2] |  |  |  |  |  | No drug effect |  |  |  |  | stable | < 4.30 | No drug effect | < 4.30 |  |  | 
4 | O=C(Nc1ncc([N+](=O)[O-])s1)[c-]1cccc1.[Ru+2].c1cc[cH-]c1 [Compound B1] | < 4.30 | < 4.30 | 45.53% | 44.35% | 57.20% | less active than niridazole |  | 5.16 |  |  | stable |  |  |  |  |  | 
5 | O=C(Nc1ncc([N+](=O)[O-])s1)C12CC3CC(CC(C3)C1)C2 [Compound D1] |  |  | 55.18% | 66.75% | 65.76% |  | 5.01 |  | 1.5 |  | stable | 5.10 |  | 5.43 | 4.53 | > 5.00 | 5.38
6 | Nc1ncc([N+](=O)[O-])s1 [Compound 2] |  |  |  |  |  | No drug effect |  |  |  |  |  | < 4.30 | No drug effect | < 4.30 |  |  | 
7 | O=C1N(C[c-]2cccc2)CCN1c1ncc([N+](=O)[O-])s1.[Fe+2].c1cc[cH-]c1 [Compound A3] | 5.24 | < 4.30 | 30.75% | 44.28% | 66.09% | less active than niridazole | 4.30 | 5.46 | 1.6 | 5.01 | stable |  |  |  |  |  | 
8 | O=C1N(CCCCCC[c-]2cccc2)CCN1c1ncc([N+](=O)[O-])s1.[Fe+2].c1cc[cH-]c1 [Compound A4] |  | < 4.30 |  |  |  | No drug effect |  | < 4.30 |  |  |  |  | No drug effect |  |  |  | 
